Literature values in patent US7709654B2, “Process for producing oxazole, imidazole, pyrrazole boryl compounds” (Board of Trustees of Michigan State University, priority 2006, dated 2010).

Target: T1, cyclooxygenase-2 (COX-2) (Homo sapiens, UniProt P35354)
T1 sequence (P35354 18-604): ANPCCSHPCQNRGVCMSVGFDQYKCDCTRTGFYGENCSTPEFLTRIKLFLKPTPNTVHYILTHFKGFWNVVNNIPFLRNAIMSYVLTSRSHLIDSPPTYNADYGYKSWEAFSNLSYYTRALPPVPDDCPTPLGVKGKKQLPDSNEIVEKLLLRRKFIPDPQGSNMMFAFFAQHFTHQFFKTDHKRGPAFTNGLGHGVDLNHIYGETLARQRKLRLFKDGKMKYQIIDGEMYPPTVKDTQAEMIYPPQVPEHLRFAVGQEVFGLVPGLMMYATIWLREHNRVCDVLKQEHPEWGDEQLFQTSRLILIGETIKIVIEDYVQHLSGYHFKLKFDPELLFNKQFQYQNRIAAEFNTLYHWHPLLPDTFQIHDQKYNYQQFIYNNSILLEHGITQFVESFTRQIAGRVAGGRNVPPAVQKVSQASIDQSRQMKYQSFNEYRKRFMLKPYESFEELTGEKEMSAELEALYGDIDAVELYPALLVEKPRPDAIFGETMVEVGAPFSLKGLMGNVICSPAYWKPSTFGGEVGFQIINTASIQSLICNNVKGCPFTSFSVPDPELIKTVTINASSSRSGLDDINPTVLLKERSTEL
Settings: COX-2 versus COX-1

## Cc1nc(C2CCCCC2)c(-c2ccc(S(N)(=O)=O)c(F)c2)o1 [JTE-522, 4-(4-cyclohexyl-2-methyloxazol-5-yl)-2-fluorobenzenesulfonamide]
  COX-2 inhibition (in words): potent, highly selective, and orally active COX-2 inhibitor
